In ChEMBL document CHEMBL3259798, “A novel Lipoprotein lipase (LPL) agonist rescues the enzyme from inhibition by angiopoietin-like 4 (ANGPTL4)” (Bioorg Med Chem Lett, 2014):
Calls of active or inactive are those of the source. No cut-off for these calls is given here.

Tests used:
[1] = target: T1, Lipoprotein lipase (Homo sapiens) (UniProt P06858); experiment: Agonist activity at lipoprotein lipase (unknown origin) using p-nitrophenylbutyrate as substrate by spectrophotometric analysis relative to control; design: concentration or dose not given beside the values
T1 sequence (whole entry): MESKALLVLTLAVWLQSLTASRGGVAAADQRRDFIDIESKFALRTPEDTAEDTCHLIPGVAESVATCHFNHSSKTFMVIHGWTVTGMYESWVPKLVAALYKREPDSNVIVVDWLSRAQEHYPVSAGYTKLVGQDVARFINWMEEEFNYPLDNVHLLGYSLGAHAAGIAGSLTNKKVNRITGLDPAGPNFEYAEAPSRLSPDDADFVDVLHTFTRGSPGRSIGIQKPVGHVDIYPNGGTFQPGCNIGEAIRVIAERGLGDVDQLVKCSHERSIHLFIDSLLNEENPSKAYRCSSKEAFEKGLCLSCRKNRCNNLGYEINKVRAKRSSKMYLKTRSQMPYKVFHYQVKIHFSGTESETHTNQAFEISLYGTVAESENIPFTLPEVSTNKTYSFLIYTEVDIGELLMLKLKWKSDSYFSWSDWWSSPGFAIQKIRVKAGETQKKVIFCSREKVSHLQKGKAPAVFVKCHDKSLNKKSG

[2] = target: T1, Lipoprotein lipase (Homo sapiens); experiment: Agonist activity at lipoprotein lipase (unknown origin) using p-nitrophenylbutyrate as substrate at 40 uM by spectrophotometric analysis
[3] = target: T1, Lipoprotein lipase (Homo sapiens); experiment: Activation of lipoprotein lipase (unknown origin) assessed as reversal of ANGPTL4-mediated enzyme inhibition treated with ANGPTL4 for 30 mins followed by substrate addition measured after 20 mins by spectrophotometric analysis
[4] = target: T1, Lipoprotein lipase (Homo sapiens); experiment: Agonist activity at lipoprotein lipase (unknown origin) using p-nitrophenylbutyrate as substrate by spectrophotometric analysis
[5] = target: T1, Lipoprotein lipase (Homo sapiens); experiment: Agonist activity at lipoprotein lipase (unknown origin) using p-nitrophenylbutyrate as substrate by spectrophotometric analysis relative to NO-1886

Row | Compound | Activity [1] | Activity [2] | Activity [3] | Activity [4] | fold change (FC) [5]
1 | Cc1cn(CCCNC(=O)C2(C)CC2(Br)Br)cn1 (configuration not stated) | 113% |  |  |  | 
2 | CC1(C(=O)NCCCn2ccnc2)CC1(Cl)Cl (configuration not stated) | 196% | Active | Dose-dependent effect | Dose-dependent effect | 
3 | CCOP(=O)(Cc1ccc(C(=O)Nc2ccc(Br)cc2C#N)cc1)OCC | 170% |  | inactive |  | 
4 | CC1(C)CC1(C(=O)NCCCn1ccnc1)c1ccc(F)cc1 (configuration not stated) | 342% |  | Dose-dependent effect |  | 2

More lines, now with the values ahead:

Row | Activity [1] | Activity [2] | Activity [3] | Activity [4] | fold change (FC) [5] | Compound
5 | 130% |  |  |  |  | CC1(C(=O)NCCCN2CCOCC2)CC1(Br)Br (configuration not stated)
6 | 122% |  |  |  |  | CC1(C(=O)NCCCn2cnc(Cl)c2)CC1(Br)Br (configuration not stated)
